Experimental findings from patent US11345681B1, “Inhibitors of fibroblast growth factor receptor kinases” (Kinnate Biopharma Inc., priority 2020, dated 2022) are described below.

Some results are limits rather than exact numbers.

For this experiment, the target named is Wild type FGFR2 (Homo sapiens (Human), UniProt P21802). As to the kind of experiment: FGFR2 kinase assay (fluorescence-based microfluidic mobility shift assay). The format is biochemical. The following applies: wild type FGFR2 0.06 nM, 100 μM ATP, 80 minutes at room temperature; class symbols.
Sequence of Wild type FGFR2 (P21802 22-821): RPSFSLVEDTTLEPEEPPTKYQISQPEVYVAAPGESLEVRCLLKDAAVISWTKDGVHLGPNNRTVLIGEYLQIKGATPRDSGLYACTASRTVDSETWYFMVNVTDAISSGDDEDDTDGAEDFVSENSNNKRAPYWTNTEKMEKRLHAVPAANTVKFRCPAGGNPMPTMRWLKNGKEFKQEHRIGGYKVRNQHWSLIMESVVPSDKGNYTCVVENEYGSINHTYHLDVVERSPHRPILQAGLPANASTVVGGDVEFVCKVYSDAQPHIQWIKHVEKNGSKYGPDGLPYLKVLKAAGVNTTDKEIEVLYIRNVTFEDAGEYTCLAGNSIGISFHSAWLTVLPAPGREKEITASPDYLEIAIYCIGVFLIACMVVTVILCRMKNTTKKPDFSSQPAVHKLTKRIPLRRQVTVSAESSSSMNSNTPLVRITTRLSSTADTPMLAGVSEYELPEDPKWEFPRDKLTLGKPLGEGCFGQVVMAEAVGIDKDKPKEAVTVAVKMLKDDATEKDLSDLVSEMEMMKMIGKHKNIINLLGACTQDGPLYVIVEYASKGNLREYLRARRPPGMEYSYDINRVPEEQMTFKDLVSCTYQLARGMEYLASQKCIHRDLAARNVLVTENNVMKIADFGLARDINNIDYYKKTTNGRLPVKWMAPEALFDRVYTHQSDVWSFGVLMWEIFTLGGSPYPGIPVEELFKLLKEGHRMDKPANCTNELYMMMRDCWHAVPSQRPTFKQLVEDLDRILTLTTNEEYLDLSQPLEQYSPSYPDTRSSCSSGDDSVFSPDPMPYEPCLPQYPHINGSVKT
For `C=CC(=O)N1C[C@@H](n2nc(C#Cc3cc4nc(C)n(C5CCC5)c4cc3Cl)c(C(N)=O)c2NC)C[C@@H]1COC` [Example 233, 1-((3S,5R)-1-Acryloyl-5-(methoxymethyl)pyrrolidin-3-yl)-3-((6-chloro-1-cyclobutyl-2-methyl-1H-benzo[d]imidazol-5-yl)ethynyl)-5-(methylamino)-1H-pyrazole-4-carboxamide], the IC50 was at most 100 nM.

In the case of `C=CC(=O)N1C[C@@H](n2nc(C#Cc3cc4ncn(C5COC5)c4cc3F)c(C(N)=O)c2NC)C[C@@H]1COC` [Example 234, 3-{2-[6-Fluoro-1-(oxetan-3-yl)-1,3-benzodiazol-5-yl]ethynyl}-1-[(3S,5R)-5-(methoxymethyl)-1-(prop-2-enoyl)pyrrolidin-3-yl]-5-(methylamino)pyrazole-4-carboxamide], the IC50 was at most 100 nM.

As for `C=CC(=O)N1C[C@@H](n2nc(C#Cc3cc4ncc(C)cc4cc3F)c(C(N)=O)c2NC)C[C@@H]1COC` [Example 236, 3-[2-(6-fluoro-3-methylquinolin-7-yl)ethynyl]-1-[(3S,5R)-5-(methoxymethyl)-1-(prop-2-enoyl)pyrrolidin-3-yl]-5-(methylamino)pyrazole-4-carboxamide], the IC50 is at most 100 nM.

On to `C=CC(=O)N1C[C@@H](n2nc(C#Cc3cc4ncn(C5CC5)c4cc3F)c(C(N)=O)c2N)C[C@@H]1[C@@H](C)O` [Example 240, 5-Amino-3-[2-(1-cyclopropyl-6-fluoro-1,3-benzodiazol-5-yl)ethynyl]-1-[(3S,5R)-5-[(1R)-1-hydroxyethyl]-1-(prop-2-enoyl)pyrrolidin-3-yl]pyrazole-4-carboxamide], for which the IC50 was at most 100 nM.

Regarding `C=CC(=O)N1C[C@@H](n2nc(C#Cc3cc4ncn(C5CC5)c4cc3F)c(C(N)=O)c2N)C[C@@H]1[C@H](C)O` [Example 241, 5-Amino-3-[2-(1-cyclopropyl-6-fluoro-1,3-benzodiazol-5-yl)ethynyl]-1-[(3S,5R)-5-[(1S)-1-hydroxyethyl]-1-(prop-2-enoyl)pyrrolidin-3-yl]pyrazole-4-carboxamide], the IC50 is at most 100 nM.

As for `C=CC(=O)N1C[C@@H](n2nc(C#Cc3cc4nc(C)n(C5CC5)c4cc3Cl)c(C(N)=O)c2N)C[C@@H]1[C@@H](C)O` [Example 244, 1-((3S,5R)-1-Acryloyl-5-((R)-1-hydroxyethyl)pyrrolidin-3-yl)-5-amino-3-((6-chloro-1-cyclopropyl-2-methyl-1H-benzo[d]imidazol-5-yl)ethynyl)-1H-pyrazole-4-carboxamide], the IC50 is at most 100 nM.

For the compound `C=CC(=O)N1C[C@@H](n2nc(C#Cc3cc4nc(C)n(C5CC5)c4cc3Cl)c(C(N)=O)c2N)C[C@@H]1[C@H](C)O` [Example 245, 1-((3S,5R)-1-Acryloyl-5-((S)-1-hydroxyethyl)pyrrolidin-3-yl)-5-amino-3-((6-chloro-1-cyclopropyl-2-methyl-1H-benzo[d]imidazol-5-yl)ethynyl)-1H-pyrazole-4-carboxamide], the IC50 is at most 100 nM.

`C=CC(=O)N1C[C@@H](n2nc(C#Cc3cc4nc(C)n(C5CC5)c4cc3F)c(C(N)=O)c2N)C[C@@H]1[C@@H](C)O` [Example 246]: the IC50 is at most 100 nM.

As for `C=CC(=O)N1C[C@@H](n2nc(C#Cc3cc4nc(C)n(C5CC5)c4cc3F)c(C(N)=O)c2N)C[C@@H]1[C@H](C)O` [Example 247, 5-Amino-3-[2-(1-cyclopropyl-6-fluoro-2-methyl-1,3-benzodiazol-5-yl)ethynyl]-1-[(3S,5R)-5-[(1S)-1-hydroxyethyl]-1-(prop-2-enoyl)pyrrolidin-3-yl]pyrazole-4-carboxamide], the IC50 was at most 100 nM.

Consider `C=CC(=O)N1C[C@@H](n2nc(C#Cc3cc4ncn(C5COC5)c4cc3Cl)c(C(N)=O)c2NC)C[C@@H]1COC` [Example 248], for which the IC50 is at most 100 nM.

For `C=CC(=O)N1C[C@@H](n2nc(C#Cc3cc4nc(C)n(C5COC5)c4cc3Cl)c(C(N)=O)c2NC)C[C@@H]1COC` [Example 249, 3-{2-[6-chloro-2-methyl-1-(oxetan-3-yl)-1,3-benzodiazol-5-yl]ethynyl}-1-[(3S,5R)-5-(methoxymethyl)-1-(prop-2-enoyl)pyrrolidin-3-yl]-5-(methylamino)pyrazole-4-carboxamide], the IC50 was at most 100 nM.

Take `C=CC(=O)N1C[C@@H](n2nc(C#Cc3c(F)cc4c(ncn4C4CC4)c3F)c(C(N)=O)c2NCCO)C[C@@H]1COC` [Example 251, 3-[2-(1-Cyclopropyl-4,6-difluoro-1,3-benzodiazol-5-yl)ethynyl]-5-[(2-hydroxyethyl)amino]-1-[(3S,5R)-5-(methoxymethyl)-1-(prop-2-enoyl)pyrrolidin-3-yl]pyrazole-4-carboxamide]: the IC50 is at most 100 nM.

As to `C=CC(=O)N1C[C@@H](n2nc(C#Cc3cc4nc(C)n(C5CC5)c4cc3F)c(C(N)=O)c2NCCO)C[C@@H]1COC` [Example 252, 3-[2-(1-Cyclopropyl-6-fluoro-2-methyl-1,3-benzodiazol-5-yl)ethynyl]-5-[(2-hydroxyethyl)amino]-1-[(3S,5R)-5-(methoxymethyl)-1-(prop-2-enoyl)pyrrolidin-3-yl]pyrazole-4-carboxamide], the IC50 is at most 100 nM.

Regarding `C=CC(=O)N1C[C@@H](n2nc(C#Cc3cc4nc(C)n(C5CC5)c4cc3Cl)c(C(N)=O)c2NCCO)C[C@@H]1COC` [Example 253, 1-((3S,5R)-1-Acryloyl-5-(methoxymethyl)pyrrolidin-3-yl)-3-((6-chloro-1-cyclopropyl-2-methyl-1H-benzo[d]imidazol-5-yl)ethynyl)-5-((2-hydroxyethyl)amino)-1H-pyrazole-4-carboxamide], the IC50 was at most 100 nM.

Regarding `C=CC(=O)N1C[C@@H](n2nc(C#Cc3cc4c(cc3F)OCO4)c(C(N)=O)c2NC)C[C@@H]1COC` [Example 254, 3-[2-(6-Fluoro-2H-1,3-benzodioxol-5-yl)ethynyl]-1-[(3S,5R)-5-(methoxymethyl)-1-(prop-2-enoyl)pyrrolidin-3-yl]-5-(methylamino)pyrazole-4-carboxamide], the IC50 was at most 100 nM.

Turning to `C=CC(=O)N1C[C@@H](n2nc(C#Cc3cc4ncc(Cl)cc4cc3F)c(C(N)=O)c2NC)C[C@@H]1COC` [Example 256, 3-[2-(3-Chloro-6-fluoroquinolin-7-yl)ethynyl]-1-[(3S,5R)-5-(methoxymethyl)-1-(prop-2-enoyl)pyrrolidin-3-yl]-5-(methylamino)pyrazole-4-carboxamide], the IC50 is at most 100 nM.

As to `C=CC(=O)N1C[C@@H](n2nc(C#Cc3cc4ncc(C)n4cc3F)c(C(N)=O)c2NC)C[C@@H]1COC` [Example 257, 1-((3S,5R)-1-Acryloyl-5-(methoxymethyl)pyrrolidin-3-yl)-3-((6-fluoro-3 methylimidazo[1,2-a]pyridin-7-yl)ethynyl)-5-(methylamino)-1H-pyrazole-4-carboxamide], the IC50 was at most 100 nM.

As for `C=CC(=O)N1C[C@@H](n2nc(C#Cc3cc4ncc(C)cc4cc3Cl)c(C(N)=O)c2NC)C[C@@H]1COC` [Example 258, 3-[2-(6-Chloro-3-methylquinolin-7-yl)ethynyl]-1-[(3S,5R)-5-(methoxymethyl)-1-(prop-2-enoyl)pyrrolidin-3-yl]-5-(methylamino)pyrazole-4-carboxamide], the half-inhibitory concentration (IC50) is at most 100 nM.

For `C=CC(=O)N1C[C@@H](n2nc(C#Cc3cc4nc5n(c4cc3F)CCC5)c(C(N)=O)c2NC)C[C@@H]1COC` [Example 260, 1-((3S,5R)-1-acryloyl-5-(methoxymethyl)pyrrolidin-3-yl)-3-((7-fluoro-2,3-dihydro-1H-benzo[d]pyrrolo[1,2-a]imidazol-6-yl)ethynyl)-5-(methylamino)-1H-pyrazole-4-carboxamide], the IC50 is at most 100 nM.

As for `C=CC(=O)N1C[C@@H](n2nc(C#Cc3cc4ncc(C5CC5)n4cc3Cl)c(C(N)=O)c2NC)C[C@@H]1COC` [Example 261, 3-(2-{6-Chloro-3-cyclopropylimidazo[1,2-a]pyridin-7-yl}ethynyl)-1-[(3S,5R)-5-(methoxymethyl)-1-(prop-2-enoyl)pyrrolidin-3-yl]-5-(methylamino)pyrazole-4-carboxamide], the concentration for half-maximal inhibition (IC50) was at most 100 nM.

For `C=CC(=O)N1C[C@@H](n2nc(C#Cc3cc4ncc(C#N)n4cc3F)c(C(N)=O)c2NC)C[C@@H]1COC` [Example 262, 3-(2-{3-Cyano-6-fluoroimidazo[1,2-a]pyridin-7-yl}ethynyl)-1-[(3S,5R)-5-(methoxymethyl)-1-(prop-2-enoyl)pyrrolidin-3-yl]-5-(methylamino)pyrazole-4-carboxamide], the IC50 was at most 100 nM.

For `C=CC(=O)N1C[C@@H](n2nc(C#Cc3ccc4c(C#N)cnn4c3)c(C(N)=O)c2NC)C[C@@H]1COC` [Example 263, 3-(2-{3-Cyanopyrazolo[1,5-a]pyridin-6-yl}ethynyl)-1-[(3S,5R)-5-(methoxymethyl)-1-(prop-2-enoyl)pyrrolidin-3-yl]-5-(methylamino)pyrazole-4-carboxamide], the IC50 is at most 100 nM.

`C=CC(=O)N1C[C@@H](n2nc(C#Cc3cc4ncc(F)cc4cc3F)c(C(N)=O)c2NC)C[C@@H]1COC` [Example 264, 3-[2-(3,6-Difluoroquinolin-7-yl)ethynyl]-1-[(3S,5R)-5-(methoxymethyl)-1-(prop-2-enoyl)pyrrolidin-3-yl]-5-(methylamino)pyrazole-4-carboxamide]: the IC50 is at most 100 nM.

In the case of `C=CC(=O)N1C[C@@H](n2nc(C#Cc3cc4ncc(C)cc4cc3C)c(C(N)=O)c2NC)C[C@@H]1COC` [Example 265, 3-[2-(3,6-Dimethylquinolin-7-yl)ethynyl]-1-[(3S,5R)-5-(methoxymethyl)-1-(prop-2-enoyl)pyrrolidin-3-yl]-5-(methylamino)pyrazole-4-carboxamide], the IC50 was at most 100 nM.

Consider `C=CC(=O)N1C[C@@H](n2nc(C#Cc3cc4nncc(C)c4cc3F)c(C(N)=O)c2NC)C[C@@H]1COC` [Example 266, 1-((3S,5R)-1-Acryloyl-5-(methoxymethyl)pyrrolidin-3-yl)-3-((6-fluoro-4-methylcinnolin-7-yl)ethynyl)-5-(methylamino)-1H-pyrazole-4-carboxamide], for which the IC50 is at most 100 nM.

Consider `C=CC(=O)N1C[C@@H](n2nc(C#Cc3cc4ncc(F)cc4cc3Cl)c(C(N)=O)c2NC)C[C@@H]1COC` [Example 267, 3-[2-(6-Chloro-3-fluoroquinolin-7-yl)ethynyl]-1-[(3S,5R)-5-(methoxymethyl)-1-(prop-2-enoyl)pyrrolidin-3-yl]-5-(methylamino)pyrazole-4-carboxamide], for which the IC50 is at most 100 nM.
